Test results as given in patent publication US9993494B2, “Compositions and methods for treating fibrotic disease” (eFFECTOR Therapeutics, Inc., priority 2014, dated 2018).

System: normal human lung fibroblasts
Experiment: Ribosomal profiling: translational efficiency in TGFβ-treated fibroblasts
Format: cell-based
Settings: TGFβ-treated fibroblasts
In short: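 Genome-wide RPF and total RNA libraries (ARTseq, RNA-Seq) were made from lysates of cycloheximide-treated, PBS-washed cells. After trimming and human-genome mapping, per-gene coding-region counts were compared between RPF and RNA for translational efficiency. Genes scoring low in either fraction were dropped.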

Cc1cc(C2CCCCC2)n(O)c(=O)c1.NCCO [CPX, ciclopirox oloamine]
renormalizing the translational profile of DNASE1L1 (ENSG00000013563): − (− = <0.9) | renormalizing the translational profile of KITLG (ENSG00000049130): − (− = <0.9) | renormalizing the translational profile of ADAMTS6 (ENSG00000049192): − (− = <0.9) | renormalizing the translational profile of LETMD1 (ENSG00000050426): − (− = <0.9) | renormalizing the translational profile of PLEKHA5 (ENSG00000052126): − (− = <0.9) | renormalizing the translational profile of EIF4B (ENSG00000063046): − (− = <0.9) | renormalizing the translational profile of RPL18 (ENSG00000063177): − (− = <0.9) | renormalizing the translational profile of HIPK2 (ENSG00000064393): − (− = <0.9) | renormalizing the translational profile of ASPM (ENSG00000066279): − (− = <0.9) | renormalizing the translational profile of RASSF1 (ENSG00000068028): − (− = <0.9) | renormalizing the translational profile of PABPC1 (ENSG00000070756): − (− = <0.9) | renormalizing the translational profile of RPL31 (ENSG00000071082): − (− = <0.9) | renormalizing the translational profile of PLD1 (ENSG00000075651): − (− = <0.9) | renormalizing the translational profile of EDN1 (ENSG00000078401): − (− = <0.9) | renormalizing the translational profile of AURKA (ENSG00000087586): − (− = <0.9) | renormalizing the translational profile of EPB41L1 (ENSG00000088367): − (− = <0.9) | renormalizing the translational profile of RPL6 (ENSG00000089009): − (− = <0.9) | renormalizing the translational profile of P2RX7 (ENSG00000089041): ++ (++ = 1.5 to 2.0) | renormalizing the translational profile of KDM2B (ENSG00000089094): − (− = <0.9) | renormalizing the translational profile of RPLP0 (ENSG00000089157): − (− = <0.9) | renormalizing the translational profile of IGBP1 (ENSG00000089289): − (− = <0.9) | renormalizing the translational profile of IRAK3 (ENSG00000090376): − (− = <0.9) | renormalizing the translational profile of PABPC4 (ENSG00000090621): − (− = <0.9) | renormalizing the translational profile of FMO2 (ENSG00000094963): − (− = <0.9) | renormalizing the translational profile of ACOT7 (ENSG00000097021): − (− = <0.9) | renormalizing the translational profile of ATP5D (ENSG00000099624): − (− = <0.9) | renormalizing the translational profile of LGALS1 (ENSG00000100097): − (− = <0.9) | renormalizing the translational profile of EIF3L (ENSG00000100129): − (− = <0.9) | renormalizing the translational profile of RPL3 (ENSG00000100316): − (− = <0.9) | renormalizing the translational profile of CEP192 (ENSG00000101639): − (− = <0.9) | renormalizing the translational profile of AMMECR1 (ENSG00000101935): − (− = <0.9) | renormalizing the translational profile of PLP2 (ENSG00000102007): − (− = <0.9) | renormalizing the translational profile of EIF3E (ENSG00000104408): − (− = <0.9) | renormalizing the translational profile of EEF1D (ENSG00000104529): − (− = <0.9) | renormalizing the translational profile of C19orf53 (ENSG00000104979): − (− = <0.9) | renormalizing the translational profile of GLTSCR2 (ENSG00000105373): + (+ = 0.9 to 1.5) | renormalizing the translational profile of RAB3D (ENSG00000105514): − (− = <0.9) | renormalizing the translational profile of RPL18A (ENSG00000105640): − (− = <0.9) | renormalizing the translational profile of COMP (ENSG00000105664): − (− = <0.9) | renormalizing the translational profile of GLCCI1 (ENSG00000106415): − (− = <0.9) | renormalizing the translational profile of CORO2A (ENSG00000106789): − (− = <0.9) | renormalizing the translational profile of GDF10 (ENSG00000107623): + (+ = 0.9 to 1.5) | renormalizing the translational profile of RPL28 (ENSG00000108107): − (− = <0.9) | renormalizing the translational profile of RPL19 (ENSG00000108298): − (− = <0.9) | renormalizing the translational profile of RASD1 (ENSG00000108551): − (− = <0.9) | renormalizing the translational profile of NAT9 (ENSG00000109065): − (− = <0.9) | renormalizing the translational profile of RPL34 (ENSG00000109475): − (− = <0.9) | renormalizing the translational profile of CRYAB (ENSG00000109846): − (− = <0.9) | renormalizing the translational profile of GAPDH (ENSG00000111640): − (− = <0.9) | renormalizing the translational profile of C12orf57 (ENSG00000111678): − (− = <0.9) | renormalizing the translational profile of HBEGF (ENSG00000113070): − (− = <0.9) | renormalizing the translational profile of RPL24 (ENSG00000114391): − (− = <0.9) | renormalizing the translational profile of EEF1B2 (ENSG00000114942): − (− = <0.9) | renormalizing the translational profile of IFIH1 (ENSG00000115267): − (− = <0.9) | renormalizing the translational profile of DPH5 (ENSG00000117543): − (− = <0.9) | renormalizing the translational profile of PPL (ENSG00000118898): − (− = <0.9) | renormalizing the translational profile of PLEKHG1 (ENSG00000120278): + (+ = 0.9 to 1.5) | renormalizing the translational profile of LIAS (ENSG00000121897): − (− = <0.9) | renormalizing the translational profile of GPSM2 (ENSG00000121957): − (− = <0.9) | renormalizing the translational profile of RPL21 (ENSG00000122026): − (− = <0.9) | renormalizing the translational profile of RPL5 (ENSG00000122406): − (− = <0.9) | renormalizing the translational profile of INHBA (ENSG00000122641): − (− = <0.9) | renormalizing the translational profile of CIT (ENSG00000122966): − (− = <0.9) | renormalizing the translational profile of RPL23 (ENSG00000125691): − (− = <0.9) | renormalizing the translational profile of LAMP5 (ENSG00000125869): + (+ = 0.9 to 1.5) | renormalizing the translational profile of NECAB3 (ENSG00000125967): − (− = <0.9) | renormalizing the translational profile of COX7C (ENSG00000127184): − (− = <0.9) | renormalizing the translational profile of LIF (ENSG00000128342): − (− = <0.9) | renormalizing the translational profile of MTUS1 (ENSG00000129422): − (− = <0.9) | renormalizing the translational profile of ARHGEF6 (ENSG00000129675): − (− = <0.9) | renormalizing the translational profile of RPL36 (ENSG00000130255): − (− = <0.9) | renormalizing the translational profile of GDF15 (ENSG00000130513): − (− = <0.9) | renormalizing the translational profile of ASS1 (ENSG00000130707): − (− = <0.9) | renormalizing the translational profile of EIF2S3 (ENSG00000130741): − (− = <0.9) | renormalizing the translational profile of RPL27 (ENSG00000131469): − (− = <0.9) | renormalizing the translational profile of MATN3 (ENSG00000132031): − (− = <0.9) | renormalizing the translational profile of PPARG (ENSG00000132170): − (− = <0.9) | renormalizing the translational profile of KDM6B (ENSG00000132510): − (− = <0.9) | renormalizing the translational profile of RARRES3 (ENSG00000133321): − (− = <0.9) | renormalizing the translational profile of BIVM (ENSG00000134897): + (+ = 0.9 to 1.5) | renormalizing the translational profile of ATP5G2 (ENSG00000135390): − (− = <0.9) | renormalizing the translational profile of KRT7 (ENSG00000135480): ++ (++ = 1.5 to 2.0) | renormalizing the translational profile of HNRNPA1 (ENSG00000135486): − (− = <0.9) | renormalizing the translational profile of IL6 (ENSG00000136244): − (− = <0.9) | renormalizing the translational profile of RPL35 (ENSG00000136942): − (− = <0.9) | renormalizing the translational profile of NOV (ENSG00000136999): − (− = <0.9) | renormalizing the translational profile of IER3 (ENSG00000137331): − (− = <0.9) | renormalizing the translational profile of DDX60 (ENSG00000137628): − (− = <0.9) | renormalizing the translational profile of RPLP1 (ENSG00000137818): − (− = <0.9) | renormalizing the translational profile of PAQR5 (ENSG00000137819): + (+ = 0.9 to 1.5) | renormalizing the translational profile of AOX1 (ENSG00000138356): − (− = <0.9) | renormalizing the translational profile of FGF5 (ENSG00000138675): − (− = <0.9) | renormalizing the translational profile of PDE5A (ENSG00000138735): − (− = <0.9) | renormalizing the translational profile of GAS2L3 (ENSG00000139354): − (− = <0.9) | renormalizing the translational profile of DIAPH3 (ENSG00000139734): − (− = <0.9) | renormalizing the translational profile of MYO19 (ENSG00000141140): − (− = <0.9) | renormalizing the translational profile of RPL13A (ENSG00000142541): − (− = <0.9) | renormalizing the translational profile of RPL11 (ENSG00000142676): − (− = <0.9) | renormalizing the translational profile of ACTA1 (ENSG00000143632): + (+ = 0.9 to 1.5) | renormalizing the translational profile of PLEKHA6 (ENSG00000143850): + (+ = 0.9 to 1.5) | renormalizing the translational profile of RPL32 (ENSG00000144713): − (− = <0.9) | renormalizing the translational profile of RPL37 (ENSG00000145592): − (− = <0.9) | renormalizing the translational profile of BTF3 (ENSG00000145741): − (− = <0.9) | renormalizing the translational profile of HIGD2A (ENSG00000146066): − (− = <0.9) | renormalizing the translational profile of CREB5 (ENSG00000146592): − (− = <0.9) | renormalizing the translational profile of DENND2A (ENSG00000146966): − (− = <0.9) | renormalizing the translational profile of RPL10 (ENSG00000147403): − (− = <0.9) | renormalizing the translational profile of EIF3H (ENSG00000147677): − (− = <0.9) | renormalizing the translational profile of RPL7A (ENSG00000148303): − (− = <0.9) | renormalizing the translational profile of EIF3M (ENSG00000149100): − (− = <0.9) | renormalizing the translational profile of FAU (ENSG00000149806): − (− = <0.9) | renormalizing the translational profile of CCDC102B (ENSG00000150636): − (− = <0.9) | renormalizing the translational profile of FRMD4A (ENSG00000151474): + (+ = 0.9 to 1.5) | renormalizing the translational profile of HOMER1 (ENSG00000152413): − (− = <0.9) | renormalizing the translational profile of PLEKHH2 (ENSG00000152527): − (− = <0.9) | renormalizing the translational profile of ANKH (ENSG00000154122): − (− = <0.9) | renormalizing the translational profile of ABCA6 (ENSG00000154262): − (− = <0.9) | renormalizing the translational profile of OBSCN (ENSG00000154358): + (+ = 0.9 to 1.5) | renormalizing the translational profile of ADAMTS5 (ENSG00000154736): + (+ = 0.9 to 1.5) | renormalizing the translational profile of OXA1L (ENSG00000155463): − (− = <0.9) | renormalizing the translational profile of C9orf85 (ENSG00000155621): − (− = <0.9) | renormalizing the translational profile of RPL30 (ENSG00000156482): − (− = <0.9) | renormalizing the translational profile of EEF1A1 (ENSG00000156508): − (− = <0.9) | renormalizing the translational profile of NRG1 (ENSG00000157168): − (− = <0.9) | renormalizing the translational profile of ADAMTS4 (ENSG00000158859): − (− = <0.9) | renormalizing the translational profile of RPL8 (ENSG00000161016): − (− = <0.9) | renormalizing the translational profile of RPL26 (ENSG00000161970): − (− = <0.9) | renormalizing the translational profile of RPL29 (ENSG00000162244): − (− = <0.9) | renormalizing the translational profile of CAMK2N1 (ENSG00000162545): − (− = <0.9) | renormalizing the translational profile of IGFBP7 (ENSG00000163453): − (− = <0.9) | renormalizing the translational profile of RPL22L1 (ENSG00000163584): − (− = <0.9)
